Reference: patent US11351134B2, “Small molecule agents, compositions, and formulations, for internal use, displaying inhibitory activity against gram-positive and/or gram-negative organisms” (NATUREZA, INC., priority 2017, dated 2022)
Where two headings read alike, the source gives them in different places.

Legend:
[1] = test system: S. epidermidis; assay: Broth microdilution MIC of lecithin/chitosan particle compositions; assay type: cell-based; settings: for MIC: Staphylococcus epidermidis
Experimental: (§1) Initially, to determine basic characteristics, each active component was separately mixed, generally under agitated conditions, with water, and each was miscible with water. Each, after being mixed with water, was tested in a broth microdilution assay, against a variety of bacteria using amounts of the each of the lauric acid derivatives, ranging from about 0.0009 wt. % to about 8 wt. %. The bacteria included Escherichia coli, and Staphylococcus aureus (including MRSA strains). The minimum inhibitory concentration (MIC) needed to prevent growth of the target bacteria was evaluated based on a method published by Clinical Laboratory Standards Institute (CLSI), broth microdilution method M-07 (M07). […] Each of the samples containing one of the lauric acid derivatives was compared with a positive control, decanoic acid.
(§2) For TABLES 1 to 3, compositions were generally prepared as described above, and as further outlined in this paragraph. For these examples, the active component, as a lauric acid derivative or lauric acid, was suspended in an organic solvent, chloroform, and then mixed with water, under robust agitation. The amount of water to the amount of chloroform was at least about 2:1, and could be as high as 10:1. Chloroform was then evaporated (e.g., under vacuum using a freeze dryer). After removal of the chloroform, a 2.2% lecithin solution in an acetate buffer (e.g., 98 mM acetic acid and 2 mM sodium acetate) was prepared and added, so the final amount of the active component was about 1 part active component mixture and about 9 parts of the 2.2% lecithin solution. Of course, it is noted that other ranges to achieve final amount of the active component as described above (e.g., active component mixture and lecithin solution) may also be utilized. Cholesterol could also be optionally added. The mixture of lecithin and the active component was mixed and sonicated, and then a solution of about 1.5% chitosan was added. Thereafter, the entirety of the mixture containing the lecithin and the active component was further blended, in which a final ratio was about 1 part active component to about 9 parts of the 2.2% lecithin solution to about 10 parts of the 1.5% chitosan solution. The pH was then varied, to a pH of 5, or a pH of 7, or a pH of 9. In some mixtures having a pH of 7, a chemical agent imparting a positive charge to the chitosan was included in a form of glycol chitosan. In these tests, the chemical agent used was glycol. In these examples, the amount of chemical agent, glycol was about one molecule glycol moiety to one molecule chitosan sacharide unit; higher amounts of glycol moieties are also acceptable, while lower amounts of glycol moieties were often found to decrease overall inhibitory activity associated with a composition when formed and tested in vitro. It is noted that negatively charged chitosan containing particles were prepared. […] After mixing, the mixtures could each be filtered through a […] filter. In some tests, the mixtures were sonicated before filtering. Sonication produced small particles. In some studies, particles were freeze dried as a powder (generally, after mixing, sonicating and filtering).
(§3) The positive controls were prepared and evaluated in a similar manner. All prepared samples were tested using a broth microdilution test.

[2] = test system: E. coli; assay: as above; assay type: cell-based; settings: for MIC: Escherichia coli; for MIC (mg/ml) for E. coli (chitosan prep. mixture was at pH 5 or at pH 7): prep. mixture pH 5 or pH 7
Experimental: as §1, §2, §3

[3] = test system: representative Gram-positive pathogens and yeast; assay: Broth microdilution of lecithin/chitosan compositions, sonicated and/or filtered; assay type: cell-based; settings: composition with lecithin and chitosan
Text: In a further preparation, lauric acid derivative, 12-aminododecanoic acid or 12-amino-1-dodecanoic acid methyl ester, was suspended individually (and independently) in an organic solvent, chloroform, and mixed with water, generally under agitated conditions. Here, for each sample, the amount of water to the amount of chloroform was at least 2:1, and was as high as 10:1. This was followed by chloroform evaporation, generally under vacuum using a freeze dryer. After removal of the chloroform, a lecithin solution was added to each sample. The lecithin was in a solution of acetic acid (e.g., 98 mM acetic acid and 2 mM sodium acetate), in which the amount of lecithin in solution was between about 1% to 5%. With addition of lecithin, each sample mixture contained up to about 4.8% lecithin (or generally about 5% or less), and up to about 7.8% of one of the lauric acid derivatives (or generally about 8% or less). pH of the solution was neutral. It is noted that the lecithin should be in a suitable form (e.g., solution or granules) acceptable for internal utilization (e.g., pharmaceutical grade). The lecithin may also include cholesterol, or other lecithin variants as described above, with similar results. Chitosan was then added to each of the samples, and each sample was then independently sonicated, followed by independent sterilization by high pressure filtration. […]

[4] = test system: Gram-positive pathogens and Gram-negative pathogens; assay: In vitro inhibitory activity of chitosan- or carrier-containing particles; assay type: cell-based
Text: as §2, §3
This also occurs when the chitosan- or carrier-containing particle includes an active component that has a log P value that is less than 4 and includes a methyl and/or ethyl side chain (e.g., 12-amino-1-dodecanoic acid methyl ester). […]

[5] = test system: Escherichia coli; assay: Broth microdilution (CLSI M07) of active component mixed with water only; assay type: cell-based; settings: active component mixed with water only (miscible state); about 0.0009 wt. % to about 8 wt. %
Experimental: as §1

[6] = test system: Staphylococcus aureus (including MRSA strains); assay: as above; assay type: cell-based; settings: active component mixed with water only (miscible state); about 0.0009 wt. % to about 8 wt. %
Experimental: as §1

[7] = test system: gram-positive organisms, Streptococcus group A and Streptococcus beta-hemolytic non-A, and S. aureus, as well as Candida; settings: background reports; free acid or ester used as such, in vitro/topical; cited from earlier work
[8] = assay type: in vivo; settings: mice, oral capsules approximately 4 mg active component in chitosan-containing particles, three times per day for seven days
Text: Laboratory trials have shown that no resistance has developed in pathogens exposed to the compositions described herein, even with long term, repeated exposure (data not shown). In addition, no intrinsic resistance can or has been detected in target pathogens. […] A placebo group is also included, in which a group of 10 mice are given a placebo set of capsules, orally, three times per day and continued for seven days, each of the placebo set of capsules containing similarly prepared chitosan-containing particles without an active component, the preparation being generally as described herein. Initial mice have been infected with Salmonella typhimurium prior to oral delivery of one of the set of capsules. The capsules may be vegetable capsules. The capsules may have an enteric coating. For delivery, a formulation may be prepared in a manner understood in the relevant art. For delivery, a formulation may be in at least any one or more of the following forms: liquid, capsule, dried powder, mist, and the like. For delivery, the formulation will contain pharmaceutical grade materials, including one or more excipients and or fillers for internal and/or topical delivery in sufficient amounts known to those of skill in the relevant art. Flavors, colors, sugars, sugar-substitutes, and the like may also be included in any of the formulations, as is understood to those of skill in the relevant art.

[9] = Table 3, lecithin/chitosan particle composition, prep. mixture pH 5 or pH 7, maximum concentration tested 10 mg/ml
[10] = Table 3, lecithin/chitosan particle composition, prep. mixture pH 5 or pH 7, maximum concentration tested 10 mg/ml, read-out: MIC (mg/ml) S. epidermidis (chitosan prep. mixture at pH 5 or at pH 7)
[11] = lecithin/chitosan particle composition, prep. mixture pH 5 or pH 7, maximum concentration tested 10 mg/ml, read-out: MIC (mg/ml) for S. epidermidis (chitosan prep. mixture was at pH 5 or at pH 7)
[12] = lecithin/chitosan particle composition, maximum concentration tested 10 mg/ml
[13] = synthesis (with chitosan) at pH 7 with positively charged chitosan

CCCCCCCCCCCC(=O)OCC(O)CO (racemic) [1-lauroyl-rac-glycerol]
MIC ([1]; read-out: MIC (mg/ml) S. epidermidis (chitosan prep. mixture at pH 5 or at pH 7)): 10 mg/mL

CCCCCCCCCC(=O)CC(=O)NC1CCCCC1=O (stereo not drawn) [3-oxo-N-(2-oxocyclohexyl) dodecanamide]
MIC (mg/ml) S. epidermidis (chitosan prep. mixture at pH 5 or at pH 7) [1, 9]: 10 mg/ml

CCCCCCCCCCCC(=O)Oc1ccc([N+](=O)[O-])cc1 [4-nitrophenyl dodecanoate]
MIC [1, 10]: 10 mg/mL

O=C(O)CCCCCCCCCCCNc1ccc([N+](=O)[O-])c2nonc12 [12-(7-nitrobenzofurazan-4-ylamino) dodecanoic acid]
MIC [1, 10]: 10 mg/mL

NCCCCCCCCCCCC(=O)O [12-aminododecanoic acid]
MIC [1, 11]: 10 mg/mL
MIC ([2]; lecithin/chitosan particle composition, prep. mixture pH 9, maximum concentration tested 10 mg/ml, read-out: MIC (mg/ml) for E. coli (chitosan prep. mixture was at pH 9)): 10 mg/mL
MIC ([2]; lecithin/glycol chitosan particle composition, prep. mixture pH 7, maximum concentration tested 10 mg/ml, read-out: MIC (mg/ml) for E. coli (chitosan prep. mixture was at pH 7 with glycol chitosan)): 10 mg/mL
MIC (mg/ml) for E. coli (chitosan prep. mixture was at pH 5 or at pH 7) [2, 12]: — (no inhibitory activity)
Growth inhibitory activity against representative Gram-positive pathogens and yeast [3]: exhibited growth inhibitory activity
Inhibitory activity against both Gram-positive pathogens and Gram-negative pathogens [4, 13]: stronger inhibitory activity as well as broad spectrum activity
Inhibitory activity against Gram-negative bacteria (e.g., E. coli) [5]: does not, in the miscible state, demonstrate inhibitory activity
Inhibitory activity against Gram-positive bacteria (e.g., S. aureus) [6]: does not, in the miscible state, demonstrate inhibitory activity

CCCCCCCCCCCC(=O)OCc1ccccc1 [benzyl laurate]
MIC [1, 10]: 10 mg/mL

CCCCCCCCCCCC(=O)OCCCC [butyl laurate]
MIC [1, 10]: 10 mg/mL

CCCCCCCCCCCC(=O)OCC [ethyl laurate]
Inhibitory activity reported in the literature [7]: inactive

CCCCCCCCCCCC(=O)OCCCCCC [hexyl laurate]
MIC [1, 10]: 10 mg/mL

CCCCCCCCCCCC(=O)OCCC(C)C [isoamyl laurate]
MIC [1, 10]: 10 mg/mL

CCCCCCCCCCCC(=O)OC(C)C [isopropyl laurate]
MIC [1, 10]: 10 mg/mL

CCCCCCCCCCCC(=O)O [lauric acid, dodecanoic acid]
Inhibitory activity reported in the literature [7]: weak inhibitory activity

CCCCCCCCCCCC(=O)OC [methyl laurate]
Inhibitory activity reported in the literature [7]: ineffective

CCCCCCCCCCCC(=O)OCC(O)CO (stereo not drawn) [monolaurin]
MIC (mg/ml) S. epidermidis (chitosan prep. mixture at pH 5 or at pH 7) [1, 9]: 10 mg/ml

CCCCCCCC(=O)O [octanoic acid, reference compound]
MIC [1, 10]: 10 mg/mL
MIC [1, 11]: 10 mg/mL
MIC (mg/ml) for E. coli (chitosan prep. mixture was at pH 5 or at pH 7) [2, 12]: — (no inhibitory activity)
Inhibitory activity against representative Gram-negative bacteria ([2]; particulated compositions manipulated to impart positivity (glycol chitosan at neutral pH, or prepared at pH 9)): not found to exhibit inhibitory activity

CCCCCCCCCCCC(=O)OCCCCC [pentyl laurate]
MIC [1, 10]: 10 mg/mL

sucrose monolaurate
Safety in animal trials [8]: no safety concerns
MIC (mg/ml) for S. epidermidis (chitosan prep. mixture was at pH 5 or at pH 7) ([1]; lecithin/chitosan particle composition, prep. mixture pH 5 or pH 7, maximum concentration tested 10 mg/ml): 10 mg/ml
MIC (mg/ml) for E. coli (chitosan prep. mixture was at pH 5 or at pH 7) [2, 12]: — (no inhibitory activity)
MIC (mg/ml) for E. coli (chitosan prep. mixture was at pH 9) ([2]; lecithin/chitosan particle composition, prep. mixture pH 9, maximum concentration tested 10 mg/ml): 10 mg/ml
MIC (mg/ml) for E. coli (chitosan prep. mixture was at pH 7 with glycol chitosan) ([2]; lecithin/glycol chitosan particle composition, prep. mixture pH 7, maximum concentration tested 10 mg/ml): 10 mg/ml
Inhibitory activity against both Gram-positive pathogens and Gram-negative pathogens [4, 13]: stronger inhibitory activity as well as broad spectrum activity
Inhibitory activity against both Gram-positive pathogens and Gram-negative pathogens ([4]; synthesis (with chitosan) at pH 9): stronger inhibitory activity as well as broad spectrum activity
